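Cells were grown in 96-well plates and exposed to each compound for 48 hours at five concentrations; endpoints were interpolated linearly between bracketing concentrations, or set to the highest concentration if not reached. GI50: concentration for 50% inhibition of growth. TGI: concentration producing complete growth inhibition.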 Where a SMILES comes first, the peptide text is derived from it. The star is where a group is joined. Boc = CC(C)(C)OC(=O)*
Legend:
Test in all cases: NCI anticancer screen, dose series, 48 h
A549 NSCLC = test system: A549 NSCLC
SW-620 colon = test system: SW-620 colon
HOP-62 NSCLC = test system: HOP-62 NSCLC
UACC-62 melanoma = test system: UACC-62 melanoma
CAKI-1 renal = test system: CAKI-1 renal
A498 renal = test system: A498 renal
MOLT-4 leukemia = test system: MOLT-4 leukemia
HOP-92 NSCLC = test system: HOP-92 NSCLC
OVCAR-3 ovarian = test system: OVCAR-3 ovarian
RPMI-8226 leukemia = test system: RPMI-8226 leukemia
M14 melanoma = test system: M14 melanoma
SNB-19 CNS = test system: SNB-19 CNS
K-562 leukemia = test system: K-562 leukemia
HS 578T breast = test system: HS 578T breast
MDA-MB-435 = test system: MDA-MB-435
PC-3 prostate = test system: PC-3 prostate
SK-MEL-5 melanoma = test system: SK-MEL-5 melanoma
MDA-N = test system: MDA-N
BT-549 breast = test system: BT-549 breast

Row | Compound | TGI (A549 NSCLC) [µM] | TGI (SW-620 colon) [µM] | TGI (HOP-62 NSCLC) [µM] | TGI (UACC-62 melanoma) [µM] | TGI (CAKI-1 renal) [µM] | TGI (A498 renal) [µM] | TGI (MOLT-4 leukemia) [µM] | TGI (HOP-92 NSCLC) [µM] | TGI (OVCAR-3 ovarian) [µM] | TGI (RPMI-8226 leukemia) [µM] | TGI (M14 melanoma) [µM] | TGI (SNB-19 CNS) [µM] | TGI (K-562 leukemia) [µM] | TGI (HS 578T breast) [µM] | TGI (MDA-MB-435) [µM] | TGI (PC-3 prostate) [µM] | TGI (SK-MEL-5 melanoma) [µM] | TGI (MDA-N) [µM] | TGI (BT-549 breast) [µM] | GI50 (OVCAR-3 ovarian) [µM]
1 | COc1c(Cl)c2c(c(OC)c1OC)-c1ccc(OC)c(=O)c(Cl)c1C(NC(C)=O)CC2 (centres undefined) | > 100 | > 100 | > 27.2 | 44.6 | > 100 | 0.413 | > 100 | 13.8 | 0.378 | 10.3 | 4.61 | > 100 | > 100 |  |  |  |  |  |  | 
2 | O=C1/C(=C/C=C/c2ccccc2)N=C(c2ccccc2)N1C1Nc2cc3c(cc2S1)NC(N1C(=O)/C(=C/C=C/c2ccccc2)N=C1c1ccccc1)S3 (centres undefined) |  | > 100 | > 100 |  | > 100 | > 100 | 0.302 | 85.2 | > 100 | 57 | > 100 |  | > 100 | > 100 | > 100 | > 100 | > 100 |  |  | 
3 | C/C(=N\NS(=O)(=O)c1ccc(C)cc1)C(CN1CCOCC1)C(c1ccccc1)c1c(O)c2ccccc2oc1=O (centres undefined) | > 100 | > 100 | > 100 | > 100 | > 100 | > 100 |  | > 100 | > 100 | > 100 | > 100 | > 100 | > 100 |  |  |  | > 100 |  |  | 
4 | CC(C)CNC(=O)CCc1cccc2c1oc1c(CCN)cccc12 | 35.6 | 27.5 | 33.7 | 32 | 31.5 | 32.3 | 30.7 | 22.7 | 17.2 |  | 30.5 | 15.9 | 14.2 |  | 25.2 | 34.3 | 27.2 | 40.5 |  | 
5 | CC(=O)OC1CCN(C(=O)c2ccccc2)CC1CC1(c2cc3ccccc3[nH]2)OCCO1 (centres undefined) | > 100 | > 100 | > 100 | > 100 | > 100 | 96.2 | 75 | > 100 | > 100 | 70.4 | > 100 | > 100 | > 100 |  | > 100 | > 100 | > 100 | > 100 |  | 
6 | COc1cc(C2c3cc4c(cc3OC(NC3CCCCC3)C2C)OCO4)cc(OC)c1OC (centres undefined) | > 85.3 | > 55.7 | > 64.3 | 43.2 | 2.75 | 25 | > 39 | 22.1 | 0.929 | 41.8 | 36.6 | > 100 | > 21.5 | 58.3 |  | > 28.8 | 1.93 |  | 26.4 | 
7 | CCN(CC)CC(=O)Nc1c(C(N)=O)nnn1Cc1cc(Cl)c(C(=O)c2ccc(Cl)cc2)c(Cl)c1 | 79.6 | 40.4 | 34.2 | 35.4 | 65.1 | > 100 | 56 | 53.2 | 31.7 | 77.7 | 30.9 | > 100 | 37.4 | 33 | 37.2 | 38.7 | 30.4 |  | 34.6 | 
8 | CC(=O)O[C@H]1C(=O)[C@@]2(C)[C@H]([C@H](OC(=O)c3ccccc3)[C@]3(O)C[C@H](OC(=O)[C@H](OC(=O)OCCC(O)CO)[C@@H](NC(=O)c4ccccc4)c4ccccc4)C(C)=C1C3(C)C)[C@]1(OC(C)=O)CO[C@@H]1C[C@@H]2O (some centres undefined) | > 100 | > 55.8 | 19.9 | 20.1 | 62.9 | 28.9 | 24.9 | 61.6 | 14.5 |  |  | > 100 | 49.8 |  |  | > 100 | 0.613 |  | 19.1 | 
9 | COC(=O)[C@@H]1CN(C(=O)c2ccccc2)C(=O)N1 | > 100 | > 100 | > 100 | > 100 |  | > 100 | > 100 | > 100 | > 100 | > 100 | > 100 | > 100 | > 100 | > 100 | > 100 | > 100 | > 100 | > 100 |  | 
10 | Cc1nc2c(n1CCO)C(=O)c1ccccc1C2=O | > 100 | > 100 | 74.4 | 30.9 |  |  | > 100 |  | 76.2 |  | 52.3 | > 100 | 58.3 |  |  |  | 23.4 |  |  | 
11 | O=c1cc(-c2ccccc2)[nH]c2cc(F)c(F)cc12 | > 31.5 | > 100 | > 100 | > 50.1 | > 100 | > 62.8 | > 100 | > 100 | 43.7 | > 100 | > 100 | > 50.6 | > 100 | > 28.9 |  | > 100 | 18.7 | 1.17 |  | 
12 | COc1cc(O)cc(/C=C/c2ccc(O)cc2)c1 | > 100 | > 100 | > 100 | 60.5 | 78.2 | 94.3 | > 100 | 91.9 | > 100 | 25.7 | > 100 | > 100 | 98.2 | > 100 | > 100 | > 100 | > 100 |  | 39.6 | 
13 | CC(NC(=O)C(NC(=O)OC(C)(C)C)C(C)C)C(=O)N1CCCC1C(=O)NCC(=O)NC(C(=O)NCC(=O)O)C(C)C (centres undefined) (Boc-VAPGVG-OH; configuration not given here) |  | > 100 | > 100 | > 100 | > 100 | > 100 | > 100 | > 100 | > 100 | > 100 | > 100 | > 100 | > 100 |  | > 100 | > 100 |  | > 100 |  | 
14 | CCN1CCC(O)(c2ccc(C)cc2)C(C(=O)c2ccc(C)cc2)C1 (centres undefined) | > 100 | 31.8 | > 100 | > 60 | 31.3 | > 100 | > 71.5 | 40.1 | 40.1 | 41.5 | > 57.8 | > 100 | > 100 |  |  |  | > 57.2 |  |  | 
15 | N#Cc1c2ccc([N+](=O)[O-])cc2c(=O)n2c1sc1ccc(C(F)(F)F)cc12 | > 100 | > 100 | > 100 |  | > 100 | > 100 | > 100 | > 100 | > 100 | > 100 | > 100 | > 100 | > 100 |  | > 100 |  | > 100 |  | > 100 | 
16 | CSC1=C(C(=O)Nc2ccc(Cl)cc2)C(N)=NC1=O | > 100 | > 100 |  | > 100 | > 100 | > 100 | > 100 |  | > 100 | > 100 | > 100 | > 100 | > 100 | > 100 | > 100 | > 100 | > 100 |  | > 100 | 
17 | COc1cc(OC)cc(Oc2nc3ccccc3nc2C(=O)O)c1 | > 100 | > 100 | > 100 | > 100 | > 100 | > 100 | > 100 | > 100 | > 100 | > 100 | > 100 | > 100 | > 100 | > 100 | > 100 | > 100 | > 100 |  |  | 
18 | COc1cccc(-c2cc(=O)c3cc(OC)c(OC)cc3[nH]2)c1 | > 100 | > 100 | > 100 | > 100 |  |  | > 100 |  | > 100 | > 100 | > 100 | > 100 | > 100 |  |  |  |  |  |  | 33.5
19 | Cn1c2ccccc2c2c(-c3ccccc3)[n+]3ccccc3nc21 | > 100 | 86.9 | 68 | 39.3 | > 100 | > 100 | > 100 | 39.7 | 57.7 | 40.8 | 34.4 | > 100 | > 100 | > 100 | 36.6 | > 100 | 33.8 |  | 54.7 | 
20 | COc1ccc(N2C(=O)C3c4[nH]c5ccc(OC)cc5c4C4CCC(C(C)(C)C)CC4C3C2=O)cc1 (centres undefined) | > 100 | > 100 | 52.5 | > 100 | > 100 | 49.3 | > 100 | 36.4 | > 100 | > 100 | > 100 | > 100 | > 100 |  |  |  | > 100 |  |  | 
21 | COc1cccc2c1CCc1ccccc1CC2=O | > 100 | > 100 |  | > 100 | > 100 | > 100 | > 100 | > 100 | > 100 | > 100 | > 100 | > 100 | > 100 |  |  |  | > 100 |  |  | 
22 | O=C1CCCCC1CN1CCCC1 (centres undefined) | > 100 | > 100 | > 100 |  |  | > 100 | > 100 |  | > 100 | > 100 | > 100 |  | > 100 |  |  |  | > 100 |  |  | 
23 | Cc1ccc(S(=O)(=O)N2CCN(S(=O)(=O)c3ccc(C)cc3)Cc3ccccc3C2)cc1 | > 100 | > 100 | 51.5 | 36.7 | > 100 |  | > 100 |  | > 100 | > 100 | > 100 | > 100 | > 100 | 96.5 | > 100 |  | > 100 |  | > 100 | 
24 | CC(=O)c1cccc(NC(=O)/C(=N\NC(C)(C)C)c2c(O)c3ccccc3oc2=O)c1 | > 100 | > 100 | > 100 | > 100 | > 100 |  | > 100 | > 100 | > 100 |  | > 100 | > 100 |  |  |  |  | > 100 |  |  | 
25 | CNC(=O)CN(CC(=O)NC)C(=O)NC | > 100 | > 100 | > 100 | > 100 | > 100 | > 100 | > 100 | > 100 | > 100 | > 100 | > 100 | > 100 | > 100 |  |  |  | > 100 |  |  | 
26 | CN(C)c1ccc(-c2cc(=O)c3cc4c(cc3[nH]2)OCO4)cc1 | > 100 | > 100 | > 100 | > 100 |  | > 100 | > 100 |  | > 100 | > 100 | > 100 | > 100 | > 100 |  |  |  | > 100 |  |  | 
27 | CC1=NN(c2nc(N)nc(CCl)n2)CC1 | > 100 | 76.4 | 29.4 | 31 | 21.4 | > 100 | 68.9 | 38.7 | 35.3 | > 100 | 80.4 | > 100 | 32.7 | > 100 | > 100 | > 100 | 32.2 |  | > 100 | 
28 | OC(c1nc2ccccc2s1)(C(F)(F)F)C(F)(F)F | > 100 | > 100 | > 100 | > 100 | > 100 | > 100 | > 100 |  | > 100 | > 100 | > 100 | > 100 | > 100 | > 100 | > 100 | > 100 | > 100 | > 100 |  | 
29 | COC(=O)c1ccc(OCc2ccc3nc(OC)c(OC)nc3c2)cc1 | > 100 | > 100 | > 100 |  | > 100 |  |  |  | > 100 | > 100 | > 100 | > 100 | > 100 |  |  |  | > 100 |  |  | 

Reference: PubChem BioAssay (NCI)
